Data taken from PubChem BioAssay (NCI).
Where “and” joins values, the source holds several entries; their conditions need not be identical. Equal values may be shown once.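 Briefly, cells in 96-well plates were exposed to five compound concentrations for 48 h, and endpoints were estimated by linear interpolation. GI50 marks 50% less growth. TGI: total growth inhibition.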

Key:
Test in all cases: growth of human tumour cells (NCI), 48 h
NCI-H226 lung = test system: NCI-H226 lung
HT29 colon = test system: HT29 colon
MOLT-4 leukemia = test system: MOLT-4 leukemia
NCI-H460 lung = test system: NCI-H460 lung
HCT-116 colon = test system: HCT-116 colon
KM12 colon = test system: KM12 colon
MDA-MB-231 breast = test system: MDA-MB-231 breast
BT-549 breast = test system: BT-549 breast
T-47D breast = test system: T-47D breast
PC-3 prostate = test system: PC-3 prostate
SK-MEL-2 melanoma = test system: SK-MEL-2 melanoma
OVCAR-4 ovarian = test system: OVCAR-4 ovarian
OVCAR-5 ovarian = test system: OVCAR-5 ovarian
TK-10 renal = test system: TK-10 renal
CAKI-1 renal = test system: CAKI-1 renal
HCC-2998 colon = test system: HCC-2998 colon
SK-MEL-28 melanoma = test system: SK-MEL-28 melanoma

Row | SMILES | TGI (NCI-H226 lung) [µM] | TGI (HT29 colon) [µM] | TGI (MOLT-4 leukemia) | TGI (NCI-H460 lung) | TGI (HCT-116 colon) | TGI (KM12 colon) | TGI (MDA-MB-231 breast) | TGI (BT-549 breast) | TGI (T-47D breast) | TGI (PC-3 prostate) | TGI (SK-MEL-2 melanoma) | TGI (OVCAR-4 ovarian) [µM] | TGI (OVCAR-5 ovarian) | TGI (TK-10 renal) | TGI (CAKI-1 renal) | TGI (HCC-2998 colon) | TGI (SK-MEL-28 melanoma) [µM] | GI50 (KM12 colon) | GI50 (MDA-MB-231 breast)
1 | CCOC1Oc2ccccc2-c2nc(N)ncc21 (configuration not stated) | > 100 | > 100 | > 100 µM | > 100 µM | > 100 µM | > 100 µM | > 100 µM | > 100 µM | > 100 µM | > 100 µM | > 100 µM | > 100 | > 100 µM | > 100 µM | > 100 µM | – | – | – | –
2 | CCCCCCCCCCCCCC/C(C(=O)O)=C(\C)C(=O)O | > 100 | > 100 | > 100 µM | > 100 µM | > 100 µM | > 100 µM | > 100 µM | > 100 µM | > 100 µM | > 100 µM | > 100 µM | > 100 | > 100 µM | > 100 µM | – | > 100 µM | > 100 | – | –
3 | CC(=O)OC1OC(C2c3cccc(O)c3C(=O)c3c(O)cc(CO)cc32)C(O)C(O)C1O (configuration not stated) | – | > 100 | 52.2 µM and 66.5 µM | 13.4 µM and 12.4 µM | 11.2 µM and 10.8 µM | 4.54 µM and 4.23 µM | 7.54 µM and 8.88 µM | 22.6 µM and 47.1 µM | 27.3 µM and 15.6 µM | 10.5 µM and 12.4 µM | 6.11 µM and 5.71 µM | > 100 | 11.7 µM and 18.1 µM | 19.4 µM and 22.4 µM | 7.51 µM and 7.82 µM | 5.81 µM and 6.58 µM | 9.63 | 0.811 µM and 0.17 µM | 1.51 µM and 3.4 µM
4 | O=C(c1ccccc1)N1CCC(Nc2cccnc2)O1 (configuration not stated) | > 100 | > 100 | > 100 µM | > 100 µM | > 100 µM | > 100 µM | > 100 µM | > 100 µM | > 100 µM | > 100 µM | > 100 µM | – | > 100 µM | > 100 µM | – | > 100 µM | > 100 | – | –
5 | CC(O)/C=C/C1OC(=O)CC1Nc1ccc(C=O)cc1 (configuration not stated) | > 100 | > 100 | 77.5 µM | > 100 µM | > 100 µM | > 100 µM | > 100 µM | > 100 µM | > 100 µM | > 100 µM | 74.7 µM | > 100 | > 100 µM | > 100 µM | – | > 100 µM | > 100 | – | –
6 | N#Cc1n[nH]n(-c2ccccc2)c1=O | > 100 | > 100 | > 100 µM | – | > 100 µM | > 100 µM | > 100 µM | > 100 µM | > 100 µM | > 100 µM | > 100 µM | > 100 | > 100 µM | > 100 µM | > 100 µM | > 100 µM | > 100 | – | –
7 | Cc1[nH]c2[nH]c(=S)nc(NC(N)=S)c2c1Cc1ccccc1 | > 100 | 52 | > 100 µM | > 100 µM | > 100 µM | 40.7 µM | > 100 µM | 36.3 µM | 89.4 µM | > 100 µM | > 100 µM | – | > 100 µM | > 100 µM | > 100 µM | – | 48.6 | – | –
8 | O=C(O)c1ccc(C2=Nc3cccc4cccc(c34)N2)cc1 | > 100 | > 100 | > 100 µM | > 100 µM | > 100 µM | > 100 µM | > 100 µM | > 100 µM | > 100 µM | > 100 µM | > 100 µM | > 100 | – | > 100 µM | > 100 µM | > 100 µM | > 100 | – | –
9 | CCOC(=O)COc1cc(-c2ccccc2)nc2cc(F)ccc12 | > 100 | > 100 | > 100 µM | – | > 100 µM | > 100 µM | > 100 µM | > 100 µM | > 100 µM | > 100 µM | > 100 µM | > 100 | > 100 µM | > 100 µM | > 100 µM | > 100 µM | > 100 | – | –
10 | COc1ccc(OC)c2c1ccc1c(C)c3ccccc3c(C)c12 | > 100 | > 100 | > 100 µM | > 100 µM | > 100 µM | – | > 100 µM | > 100 µM | > 100 µM | > 100 µM | > 100 µM | > 100 | > 100 µM | > 100 µM | > 100 µM | 45.8 µM | > 100 | – | –
11 | CC(=S)NC=C(C(N)=O)C(N)=O | > 100 | > 100 | > 100 µM | – | > 100 µM | > 100 µM | > 100 µM | > 100 µM | > 100 µM | > 100 µM | > 100 µM | – | > 100 µM | – | > 100 µM | > 100 µM | > 100 | – | –
12 | CN(C(=O)C12C3(C(=O)O)C4C5(C(=O)O)C3C1(C(=O)O)C5C42C(=O)O)C(C)(C)C (configuration not stated) | – | > 100 | > 100 µM | > 100 µM | > 100 µM | > 100 µM | > 100 µM | > 100 µM | > 100 µM | > 100 µM | > 100 µM | > 100 | > 100 µM | > 100 µM | > 100 µM | > 100 µM | > 100 | – | –
13 | O=c1oc2ccccc2c(O)c1Cc1ccccc1Cc1c(O)c2ccccc2oc1=O | > 100 | > 100 | > 100 µM | > 100 µM | > 100 µM | > 100 µM | > 100 µM | > 100 µM | > 100 µM | > 100 µM | > 100 µM | > 100 | > 100 µM | > 100 µM | > 100 µM | – | > 100 | – | –
14 | O=C(O)C(C(F)(F)F)C(F)(F)F (tested in a mixture with another compound) | > 100 | > 100 | > 100 µM | > 100 µM | > 100 µM | > 100 µM | > 100 µM | > 100 µM | > 100 µM | > 100 µM | > 100 µM | > 100 | > 100 µM | > 100 µM | > 100 µM | – | > 100 | – | –
15 | CCOC(=O)/C=C(\C(=O)OCC)n1cc(C)c(=O)n(Cc2cn(COCCOC(C)=O)nn2)c1=O | – | 20.9 | 22 µM | 30.2 µM | 80.4 µM | 30.4 µM | 40.7 µM | 24.3 µM | > 100 µM | 38.6 µM | 34.5 µM | 48.7 | 29.5 µM | 15.9 µM | 7.05 µM | 43 µM | 48.1 | – | –
